Measurements published in patent publication US20080176906A1, “Substituted Pyrrole Derivative” (Takeda Pharmaceutical Company Limited, priority 2004, published 2008).
Substitutions are numbered along the chain they refer to.

Key:
mouse prostate = assay: Test of reduction in weight of mouse prostate; assay type: in vivo; conditions: orally 50 mg/kg/day for 7 days, 8 week old male mouse; drug non-addition 0%, castration 100%
Text: A rate of reduction in a prostate weight is shown in Table 5, letting at drug non-addition to be 0%, and letting at castration to be 100%.

mutated AR (W741C) = biological target: T1, mutated AR (W741C) (Homo sapiens, UniProt P10275, W742C); assay: AR transcription inhibition test (luciferase reporter in Cos-7); assay type: cell-based; conditions: 0.1 μM compound, DHT 0.04 μM, 24 hours, luciferase activity, relative to a control
T1 construct: expressed in transfected cells; host or cells: Cos-7
T1 sequence (P10275 1-920 W742C): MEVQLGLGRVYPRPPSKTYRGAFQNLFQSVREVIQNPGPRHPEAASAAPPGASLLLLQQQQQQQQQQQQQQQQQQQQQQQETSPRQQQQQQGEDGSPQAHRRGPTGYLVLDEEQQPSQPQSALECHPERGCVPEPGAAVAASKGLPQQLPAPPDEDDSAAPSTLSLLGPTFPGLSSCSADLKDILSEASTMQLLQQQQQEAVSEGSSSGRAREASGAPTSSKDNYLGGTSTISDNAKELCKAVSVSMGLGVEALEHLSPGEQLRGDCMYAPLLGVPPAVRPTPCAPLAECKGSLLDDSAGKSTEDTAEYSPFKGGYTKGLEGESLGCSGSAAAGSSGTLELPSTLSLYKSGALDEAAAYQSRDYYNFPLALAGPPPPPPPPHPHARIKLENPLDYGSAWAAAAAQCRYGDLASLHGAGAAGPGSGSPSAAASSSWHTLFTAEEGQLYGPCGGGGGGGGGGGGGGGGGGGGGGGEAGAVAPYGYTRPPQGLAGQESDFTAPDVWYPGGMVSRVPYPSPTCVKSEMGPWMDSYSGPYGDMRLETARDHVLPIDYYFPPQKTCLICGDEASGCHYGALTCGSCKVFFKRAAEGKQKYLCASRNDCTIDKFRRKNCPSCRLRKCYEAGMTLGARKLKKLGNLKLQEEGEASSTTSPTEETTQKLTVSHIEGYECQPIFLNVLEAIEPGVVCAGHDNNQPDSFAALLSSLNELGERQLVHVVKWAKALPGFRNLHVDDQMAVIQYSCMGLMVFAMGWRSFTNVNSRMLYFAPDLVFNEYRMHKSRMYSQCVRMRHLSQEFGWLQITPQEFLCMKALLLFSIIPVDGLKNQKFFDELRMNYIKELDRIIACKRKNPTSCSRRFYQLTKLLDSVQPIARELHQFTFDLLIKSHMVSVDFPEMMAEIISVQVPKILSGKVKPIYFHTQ
Description: 5,000,000 Cells of Cos-7 was inoculated on a flask, and cultured in a culturing solution (DMEM+10% Dextran Charcoal (DCC)-Fetal Bovine Serum (FBS)+2 mM glutamine) for 24 hours, and a vector DNA in which mutated AR (W741C) had been inserted, and a vector DNA in which a luciferase gene had been connected downstream of an androgen-responsive promoter were transfected by a liposome method. After two hours, the medium was exchanged, the cells were cultured for 3 hours, DHT (dihydrotestosterone) having the final concentration of 0.04 μM and an assessment compound having the final concentration of 0.1 μM were added, and the cells were cultured for 24 hours, and luciferase activity was measured to investigate AR transcription inhibition activity of the assessment compound.

[1] = test system: human prostate cancer cell LNCaP-FGC; assay: Prostate specific antigen (PSA) production inhibition in prostate cancer cell; assay type: cell-based; conditions: 72 h, 1 μM compound, testosterone 1 ng/mL, three days, PSA in culture supernatant by ELISA, testosterone non-added group 100%, testosterone-added group 0%, read-out: PSA production Inhibitory rate (%) at 1 μM
Description: A human prostate cancer cell LNCaP-FGC was inoculated on a 96-well plate at 5000 cells/100 μL/well and, on the next day, testosterone having the final concentration of 1 ng/mL and 1 μM of a compound were added. Three days after addition, the PSA concentration in the culture supernatant was measured by ELISA, and a PSA production inhibition rate was calculated, letting the rate of a testosterone non-added group to be 100%, and letting the rate of a testosterone-added group to be 0%.

[2] = biological target: T2, wild-type androgen receptor (AR) (Homo sapiens, UniProt P10275); assay: AR binding inhibitory test (wild type); conditions: 1 μM compound, 3 nM miboleron, 4° C. for 3 hours, dextran/charcoal B/F separation; read-out: Inhibitory rate (%) at 1 μM, Wild type
T2 sequence (P10275 1-920): T1 sequence (P10275 1-920 W742C) with C742W
Description: 3 nM miboleron and 1 μM of a compound was added to a solution containing a wild-type androgen receptor (AR) or an androgen receptor (AR) having a LNCaP type mutation, this was incubated at 4° C. for 3 hours, and B(Bound)/F(Free) separation was performed by a dextran/charcoal method. A label count of B was measured, and an inhibition rate of the compound was calculated.

`Cc1c(C#N)c(-c2ccc(C#N)cc2)c(C)n1Cc1cnc(Cl)c(CO)c1` [Compound 1, 1-{[6-Chloro-5-(hydroxymethyl)pyridin-3-yl]methyl}-4-(4-cyanophenyl)-2,5-dimethyl-1H-pyrrole-3-carbonitrile] was tested, and the “Reduction rate (%) of prostate weight” value (mouse prostate) was 74%, the “AR transcription Inhibitory rate (%) at 0.1 μM” value (mutated AR (W741C)) was 49% and the inhibition at 1 µM [1] was 99%. It also gave an inhibition at 1 µM [2] of 94%.
